Laboratory results as given in ChEMBL document CHEMBL2434887, “Synthesis and biological evaluation of a new series of N-ylides as protein farnesyltransferase inhibitors” (Bioorg Med Chem Lett, 2013).

Tests used:
[1] = target: T1, Protein farnesyltransferase (Homo sapiens, UniProt P49354+P49356); test: Inhibition of recombinant human farnesyltransferase using Dansyl-GCVLS as substrate measured for 15 mins by fluorimetric analysis; type: protein-complex assay
[2] = target: T1, Protein farnesyltransferase; test: Inhibition of recombinant human farnesyltransferase using Dansyl-GCVLS as substrate at 100 uM measured for 15 mins by fluorimetric analysis relative to control; type: protein-complex assay

Compound | IC50 [1] [µM] | inhibition [2] [%]
COc1cc(C(=O)[C-](C=C(C#N)C#N)[n+]2ccc(N(C)C)cc2)cc(OC)c1OC | 15.6 | 93
CCOC(=O)/C(C#N)=C/[C-](C(=O)c1ccc(C#N)cc1)[n+]1ccc(N(C)C)cc1 | 46.2 | 69
CCOC(=O)/C(C#N)=C/[C-](C(=O)c1ccccc1)[n+]1ccc(C)cc1 | – | 45
CCOC(=O)/C(C#N)=C/[C-](C(=O)c1ccc(OC)cc1)[n+]1ccc(OC)cc1 | – | 51
CCOC(=O)/C(C#N)=C/[C-](C(=O)c1ccc(OC)c(OC)c1)[n+]1ccc(OC)cc1 | 20.8 | 88
CCOC(=O)/C(C#N)=C/[C-](C(=O)c1ccc(Cl)cc1)[n+]1ccc(N(C)C)cc1 | 31.9 | 100
CCOC(=O)/C(C#N)=C/[C-](C(=O)c1ccc(Br)cc1)[n+]1ccc(N(C)C)cc1 | 36.4 | 100
Cc1cc[n+]([C-](C=C(C#N)C#N)C(=O)c2ccccc2)cc1 | – | 29
CN(C)c1cc[n+]([C-](C=C(C#N)C#N)C(=O)N2c3ccccc3Sc3ccccc32)cc1 | 4.67 | –
CCOC(=O)/C(C#N)=C/[C-](C(=O)c1cc(OC)c(OC)c(OC)c1)[n+]1ccc(N(C)C)cc1 | 48 | 73
CCOC(=O)/C(C#N)=C/[C-](C(=O)c1cc(OC)c(OC)c(OC)c1)[n+]1cc(C)cc(C)c1 | 43.5 | 90
CN(C)c1cc[n+]([C-](C=C(C#N)C#N)C(=O)c2ccc3c(c2)NC(=O)CO3)cc1 | 25.8 | 92
CCOC(=O)/C(C#N)=C/[C-](C(=O)c1ccc(OC)cc1)[n+]1cc(C)cc(C)c1 | – | 49
COc1cc(C(=O)[C-](C=C(C#N)C#N)[n+]2cc(C)cc(C)c2)cc(OC)c1OC | 20.1 | 82
CCOC(=O)/C(C#N)=C/[C-](C(=O)c1ccc2c(c1)NC(=O)CO2)[n+]1ccc(N(C)C)cc1 | 55.2 | 62
COc1cc[n+]([C-](C=C(C#N)C#N)C(=O)c2ccc(OC)c(OC)c2)cc1 | 31.4 | 77
CCOC(=O)/C(C#N)=C/[C-](C(=O)c1ccc(C)cc1)[n+]1ccc(N(C)C)cc1 | 43.6 | 65
CCOC(=O)/C(C#N)=C/[C-](C(=O)c1ccccc1)[n+]1ccc(N(C)C)cc1 | 30.9 | 68
CCOC(=O)/C(C#N)=C/[C-](C(=O)c1ccc(F)cc1)[n+]1ccc(N(C)C)cc1 | 62.3 | 64

More lines, now with the values ahead:

IC50 [1] [µM] | inhibition [2] [%] | Compound
27.3 | 83 | COc1ccc(C(=O)[C-](C=C(C#N)C#N)[n+]2ccc(OC)cc2)cc1
22.2 | 99 | COc1ccc(C(=O)[C-](C=C(C#N)C#N)[n+]2ccc(N(C)C)cc2)cc1
62.7 | 64 | CCOC(=O)/C(C#N)=C/[C-](C(=O)c1ccc(OC)cc1)[n+]1ccc(N(C)C)cc1
23.6 | 81 | CN(C)c1cc[n+]([C-](C=C(C#N)C#N)C(=O)c2ccc(F)cc2)cc1
46.2 | 79 | CN(C)c1cc[n+]([C-](C=C(C#N)C#N)C(=O)c2ccccc2)cc1
14.5 | 89 | Cc1ccc(C(=O)[C-](C=C(C#N)C#N)[n+]2ccc(N(C)C)cc2)cc1
28.2 | 88 | CN(C)c1cc[n+]([C-](C=C(C#N)C#N)C(=O)c2ccc([N+](=O)[O-])cc2)cc1
23.9 | 77 | CN(C)c1cc[n+]([C-](C=C(C#N)C#N)C(=O)c2ccc(C#N)cc2)cc1
12.5 | 95 | CN(C)c1cc[n+]([C-](C=C(C#N)C#N)C(=O)c2ccc(Cl)cc2)cc1
19.7 | 91 | CN(C)c1cc[n+]([C-](C=C(C#N)C#N)C(=O)c2ccc(Br)cc2)cc1
27.4 | 75 | COc1ccc(C(=O)[C-](C=C(C#N)C#N)[n+]2cc(C)cc(C)c2)cc1
